The values below come from patent US20040175419A1, “Control of compactibility through cystallization” (priority 2001, published 2004).

What all share (type): physicochemical
Data set [1] in a line: Crystallinity by X-ray diffraction after milling. To be noted: milled API, FIG. 4. The text has this: This amorphization through the milling process can lead to chemical instability of the API. […] This clearly illustrated that modification of the crystallization process parameters to achieve higher compactability of the API is the preferred choice.
The nature of data set [2]: Bonding Index calculated from tensile strength and dynamic indentation hardness. An excerpt: The Bonding Index of the material can be calculated from the tensile strength measurements as well as the dynamic indentation hardness measurements described above using the equation shown below: [formula]
The highest bonding index value observed today is that of microcrystalline cellulose Avicel PH 101 which is 0.04. The bonding index of Lot # 2 was 0.034±0.001.

A short description of data set [3]: Agglomerate size of API crystallized at different supersaturation. How it is done:
The crystallization parameters and seeding conditions (using “as is” API at 0.1-0.2%) described in the procedure outlined in Table 1 was adopted as a starting point for modifications. By changing the ratio of solvent/antisolvent (isopropyl acetate/heptane) in step 3 (Table 1) from 1.67 to 1.0 and varying the pot temperature from 80 to 50° C., the degree of supersaturation was increased by a factor of 5 (from about 3.5 to about 17.5). The materials made from these conditions are generally agglomerates formed by a cluster of primary crystals plus the conjunction material which glue these crystals together.
At low supersaturation, large agglomerates (500-1000 μm) with large primary crystals (also large) were obtained. At high supersaturation the procedure generates small agglomerates (200-300 μm) with smaller primary crystals. This is consistent with other crystallization systems, in which nucleation is rate limiting, where high supersaturation favors the formation of agglomerates and mild supersaturation results in elementary crystals. Generally, these agglomerated materials compact quite poorly and create difficulties for large scale, high speed tablet manufacture. […] The manipulation of supersaturation was consequently not pursued further. […]

Data set [4] is described as follows: Compactability (slope of tensile strength versus compression pressure) of 80% API powder blend compressed on an Instron. Conditions: for compactability of the powder blend: 80% bulk drug and 20% excipient. The procedure: In order to evaluate the compressibility and compactability of all API lots generated by modifying the crystallization process, a blend of 80% API, 19.5% microcrystalline cellulose and 0.5% magnesium stearate was prepared by mixing in a tumble mixer for 5 minutes. Each mixture was then compressed on an Instron (Universal Stress-Strain Analyzer) using a 0.5 inch diameter tooling (upper and lower punches and die) at a speed of 100 mm/min at compression forces of 5, 10, 15, 20 and 25 kN each for a replicate of three tablets. The tablet dimensions were measured using a digital Vernier calliper and the strength of the tablets were determined using an Erweka hardness tester. The volume of the tablet can be calculated from the tablet dimensions normalized for the true density of the mixture being compressed. The compressibility curves are generated by plotting the solid fraction of the tablet generated at each compression pressure versus the respective compression pressure. The area under such a curve represents the extent of volume reduction. The force required to break the tablets is normalized for the area of the tablet to obtain the tensile strength value. Slopes for profiles of tensile strength versus the compression pressure represent the compactability of the material while the area under the curve of tensile strength versus the solid fraction of the tablets represents the extent of compaction or toughness of the material.

The nature of data set [5]: Solid-state stability of crystal forms. Conditions: compared with forms 5, 6, 7. An excerpt:
Due to the unique structure of the API material at least four different groups of crystal structures were observed (forms 4, 5, 6, 7) and analyzed by single crystal x-ray. […] Orthorhombic Form 6 consisted of a group of isostructural (1:1) solvates which accommodates solvents such as EtOAc, acetone and MEK. […] An exhaustive study of API crystallization on the feasibility of various solvents, control of polymorphs, and robustness of process concluded that the selected form could be consistently produced and kept stable in iPrOAc (or BuOAc)/Heptane (or Cyclohexane), following which a reproducible crystallization procedure in the iPrOAc/heptane solvent system was developed and implemented. This procedure, associated with the aminolysis of penultimate compound (Chemical Abstracts Systematic Name, (αS)-α-(Benzoylthio)-3,4,4-trimethyl-2,5-dioxo-1-imidazolidinebutanoyl-L-leucyl-N,3-dimethyl-L-valinamide), is successful in purging undesirable side products/impurities such as α,α′-Dithiobis[N-[1-[[[2,2-dimethyl-1-[(methylamino)carbonyl]propyl]amino]-carbonyl]-3-methylbutyl]-3,4,4-trimethyl-2,5-dioxo-1-imidazolidinebutanamide] which is the S,S′-dimer of the API. The crystallization procedure is further described in Table 1.

The nature of data set [6]: Brittle fracture index (BFI) from compacts with and without a 1 mm hole. Conditions: square compacts; scale 0 to 1. The procedure:
Similarly, the tensile strength is determined for square compacts that are prepared with a magnified flaw using the tri-axial decompression press and a upper punch having a 1 mm diameter pin spring loaded on its surface. This pin facilitates the introduction of a 1 mm diameter hole in the center of the compact. The tensile strength values of the compacts with and without a hole are used to evaluate the brittle fracture index (BFI) of the material as shown below: [formula]
Where, σT is the tensile strength of the square compacts without a hole in the center and σTo is the tensile strength of the square compacts with a 1 mm hole in the center that acts as a stress concentrator.

Data set [7] can be described thus: Tensile strength of square compacts from tri-axial decompression press (Hiestand tablet indices). Conditions: square compacts prepared at a solid fraction of 0.85. How it is done: In order to characterize the deformation mechanism of the API, Hiestand's tablet indices (see, E. N. Hiestand and D. P. Smith, Powder Technology, 38, pp 145-159 (1984) hereby incorporated by reference) were evaluated. The identical procedure as developed by E. N. Hiestand, at the Pharmacia and Upjohn company was adapted for evaluating the deformation properties of the API. In brief, square shaped compacts (1.97 cm^2) were prepared using a tri-axial decompression Loomis Engineering press. This tri-axial press facilitates compression pressure relief in three dimensions as opposed to […] as in the uni-axial press. […] Through tri-axial decompression it is possible to produce virtually flawless compacts. The API was compressed with the procedure describe above to produce compacts having a relative density or solid fraction of 0.85. The compacts were then subjected to tensile strength testing on an Instron stress-strain analyzer at a cross head speed of about 0.8 mm/min. This speed allowed the time constant between the peak stress and 1/e times the peak stress to be a constant of 10 seconds. […]
where, σ is the tensile strength calculated and F is the force required to initiate crack propagation in the compact and l and b are the length and breadth of the compact, respectively. […]

The nature of data set [8]: Dynamic indentation hardness by pendulum impact apparatus. To be noted: square compacts without a hole. How it is done: The square compacts (without a hole) are then subjected to a dynamic indentation hardness evaluation using a pendulum impact apparatus as described in Tablet Indices^11. The velocity at which the pendulum sphere impacts the compact as well as the speed with which the pendulum sphere is rebound from the compact is recorded. The indentation made on the compact surface by the procedure described above is measured with a surface analyzer that facilitates computation of the chordal radius of the indentation. These measurements are then used to calculate the dynamic indentation hardness of the material using the equation described below: [formula]
where, m and r are the mass and radius of the indenting sphere, respectively and hi and hr are the inbound and rebound heights, respectively and a is the chordal radius of the indentation created on the compact surface. G is acceleration due to gravity. […] This value is much lower than that of the standard compressible filler, Avicel PH 102 that has a hardness of 352 MN/m^2. […] The hardness value for Lot # 2 was 52.9 MN/M^2±8.2 MN/M^2. The increase in hardness of the material from the optimized crystallization process is not significant enough to change the conclusion drawn earlier about its ductility.

In the case of `CNC(=O)[C@@H](NC(=O)[C@H](CC(C)C)NC(=O)[C@@H](S)CCN1C(=O)N(C)C(C)(C)C1=O)C(C)(C)C` [API, N-[(2S)-2-Mercapto-1-oxo-4-(3,4,4-trimethyl-2,5-dioxo-1-imidazolidinyl)butyl]-L-leucyl-N,3-dimethyl-L-valinamide], the “change of crystallinity after milling (X-ray diffraction patterns)” value in data set [1] is given as “reduction in the crystallinity”. In addition, the bonding index in data set [2] is recorded as 0.025±0.001. Moreover, the agglomerate size in data set [3] (high supersaturation) is listed as 200-300 μm; in data set [3] (low supersaturation), 500-1000 μm. For the same compound, the compactability was 12.3 kPa/MPa in data set [4] (1% ground seeds, with sonication); 7.0 kPa/MPa in data set [4] (50-g sample, 1.5% ball-milled seeds); 14.4 kPa/MPa in data set [4] (50-g sample, 4% ground seeds); 12.6 kPa/MPa in data set [4] (50-g sample, 5% ground seeds). Also, the product compactability in data set [4] (50-g sample, 1% AirJet-milled seeds) was 4.2 kPa/MPa; in data set [4] (50-g sample, 1% ball-milled seeds), 5.9 Kpa/MPa; in data set [4] (50-g sample, 1% ground seeds, without sonication), 10.5 kPa/MPa; in data set [4] (50-g sample, 1% seeds crystallized from a ground seeded batch), 5.3 kPa/MPa. Besides, in data set [4] (50-g sample, 4% ground seeds), the “improvement in compactability over material generated by the current process” value is recorded as ~10 fold. In data set [4] (50 g scale, crystallization seeded with 5% large agglomerates), this compound came in with a powder blend compactability of 3.65 kPa/MPa. For the same compound, the “compactability of the powder blend” value in data set [4] (100 Kg scale, "as is" material at 1.5% seed loading) is 2.8-3.4 kPa/Mpa; in data set [4] ("as is" seed, 0.1% seed loading (representative)), 1.4-1.7 kPa/Mpa. For the same compound, the “change of compactability after milling” value in data set [4] (milled API, FIG. 3) is reported as “gain in compactability”.

Take `CNC(=O)[C@@H](NC(=O)[C@H](CC(C)C)NC(=O)[C@@H](S)CCN1C(=O)N(C)C(C)(C)C1=O)C(C)(C)C` [Form 4, N-[(2S)-2-Mercapto-1-oxo-4-(3,4,4-trimethyl-2,5-dioxo-1-imidazolidinyl)butyl]-L-leucyl-N,3-dimethyl-L-valinamide]: the “stability of crystal structure in the solid state” value in data set [5] is recorded as “did not transform/decompose to other crystalline structures in the solid state”.

In the case of `CNC(=O)[C@@H](NC(=O)[C@H](CC(C)C)NC(=O)[C@@H](S)CCN1C(=O)N(C)C(C)(C)C1=O)C(C)(C)C` [Lot# 1, N-[(2S)-2-Mercapto-1-oxo-4-(3,4,4-trimethyl-2,5-dioxo-1-imidazolidinyl)butyl]-L-leucyl-N,3-dimethyl-L-valinamide], the “brittle fracture index (BFI)” value in data set [6] is listed as 0.14±0.03. Also, the tensile strength in data set [7] (listed as MMPI Lot# 1) came to 90.46 N/cm^2. The compound further displayed a dynamic indentation hardness in data set [8] of 35.8 MN/m^2.

Take `CNC(=O)[C@@H](NC(=O)[C@H](CC(C)C)NC(=O)[C@@H](S)CCN1C(=O)N(C)C(C)(C)C1=O)C(C)(C)C` [Lot# 2, N-[(2S)-2-Mercapto-1-oxo-4-(3,4,4-trimethyl-2,5-dioxo-1-imidazolidinyl)butyl]-L-leucyl-N,3-dimethyl-L-valinamide]: the bonding index in data set [2] is recorded as 0.034±0.001. In addition, the “brittle fracture index (BFI)” value in data set [6] was determined as 0.20±0.02. The compound further displayed a tensile strength in data set [7] of 181.90 N/cm^2. In addition, the dynamic indentation hardness in data set [8] is 52.9 MN/m^2.
